Test results published in patent US20250049970A1, “DLL3 TARGETING PEPTIDES AND CONSTRUCTS THEREOF” (MARIANA ONCOLOGY INC., priority 2023, published 2025).
Like-named read-outs stand apart in the source and are kept apart here. *1 amine or outer side, *2 acyl side, *3 side chain or, on linkers, in order; H or OH if unused. Where a SMILES comes first, the peptide text is derived from it. Bridges are numbered along the chain shown (N, C = ends). [ ]: non-standard residue; d: D form. The star is where a group is joined. ξ: configuration not given here. Ala(piperidin-4-yl) = O=C([C@H](CC1CCN([*:3])CC1)N[*:1])[*:2]; DOTA = O=C(O)CN1CCN(CC(=O)O)CCN(CC(=O)*)CCN(CC(=O)O)CC1; X2 = O=C(Cc1ccc(I)cc1)NCCOCCOCCOCCOCCOCCOCCOCCOCC(=O)*; 2Nal = N[C@@H](Cc1ccc2ccccc2c1)C(=O)O; NMetBuAla = CN[C@@H](CC(C)(C)C)C(=O)O; Thr(3ξ) = CC(O)[C@H](N)C(=O)O; Chg = N[C@H](C(=O)O)C1CCCCC1; NMeNle = CCCC[C@H](NC)C(=O)O; Tle = CC(C)(C)[C@H](N)C(=O)O; αMeP = C[C@@]1(C(=O)O)CCCN1; CH2 = C([*:1])[*:2]

Legend:
DLL3 = molecular target: T1, DLL3 (Homo sapiens, UniProt Q9NYJ7); test: SPR KD, biotinylated human DLL3 on streptavidin chip (Table 8); design: biotin (biotinylated)
T1 sequence (Q9NYJ7 27-618): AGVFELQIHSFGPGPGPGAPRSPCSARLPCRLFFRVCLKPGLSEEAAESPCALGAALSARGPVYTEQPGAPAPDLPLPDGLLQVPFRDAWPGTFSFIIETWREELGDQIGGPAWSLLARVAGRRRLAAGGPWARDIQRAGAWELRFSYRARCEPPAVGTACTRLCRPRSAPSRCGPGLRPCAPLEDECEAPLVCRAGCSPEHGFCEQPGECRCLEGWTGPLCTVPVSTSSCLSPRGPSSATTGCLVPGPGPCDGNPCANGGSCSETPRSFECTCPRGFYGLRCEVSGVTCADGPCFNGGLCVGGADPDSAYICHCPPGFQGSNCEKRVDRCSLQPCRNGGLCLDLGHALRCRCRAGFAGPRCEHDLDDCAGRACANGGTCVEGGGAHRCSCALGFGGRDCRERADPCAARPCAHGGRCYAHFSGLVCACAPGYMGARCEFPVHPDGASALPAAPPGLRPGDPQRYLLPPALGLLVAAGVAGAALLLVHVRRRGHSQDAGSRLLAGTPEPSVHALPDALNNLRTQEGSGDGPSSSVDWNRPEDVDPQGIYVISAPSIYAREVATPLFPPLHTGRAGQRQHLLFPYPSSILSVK
From the text: Biotinylated target ligand human DLL3 was immobilized on a streptavidin sensor chip. A reference surface was set up for nonspecific binding and refractive index changes. […] Sensorgram curves were fitted with 1:1 binding model, and affinity and kinetic parameters were obtained using Biacore Insight evaluation 4.0. software.

[1] = system: nude mice bearing SHP-77 tumors; test: Ex vivo biodistribution of radiolabeled peptides (% IA/g) in nude mice bearing SHP-77 tumors; conditions: [177Lu]Lu labelling, 24 hours post-injection, intravenous
Protocol: Mice were intravenously injected (via the lateral tail vein) with a bolus dose of the radiolabeled peptides for ex vivo biodistribution studies when tumor volumes were in range of 200-400 mm^3 for xenograft mice and when age of the mice was 5-7 weeks for tumor naïve mice studies. To assess the amount of radionuclide injected into individual mice the syringe was assayed in a dose calibrator before and after injection for [^177Lu]Lu-peptide, then the injected dose was determined from the weight difference and concentration of the radionuclide solution.
Mice were euthanized at pre-determined time points and selected tissues were resected and collected into pre-weighed tubes. The tubes were then reweighed post resection, the difference giving the weight of each tissue. Radioactivity in each tissue was measured using a gamma counter. Counts were decay corrected to the time of injection and percentage of injected activity per gram (% IA/g) was calculated for each tissue based on the injected activity into each individual mouse. Injected activity was converted to counts based on the sensitivity of the gamma counter. The counts in tissue were then converted to the percentage of injected activity and this was divided by the mass of tissue to give % IA/g.

SHP-77 cells [2] = test: Internalization of [177Lu]Lu-labeled peptide, SHP-77 cells; assay type: cell-based; conditions: 1 h, 37° C.
Protocol: (§1) [^177Lu]LuCl3 was received from venders in HCl solution. For every mCi of [^177Lu]LuCl3 added to the reaction vial (1.5 mL Eppendorf vial), ammonium acetate buffer (0.2 M, pH 4.9, 100 μL, containing 1% w/v ascorbic acid and 6% v/v ethanol) and peptide conjugate (1 nmol; also referred to herein as “chelator-peptides”) was added. The pH of the solution was determined to be approximately 5 by using pH strips. The reaction vial was incubated at 80° C., 700 RPM for 17-20 minutes. A sample from the reaction was analyzed by RP-HPLC using an Agilent Infinity II 1260 HPLC to determine reaction completion and radiochemical purity of [^177Lu]Lu-chelator-peptides. HPLC conditions: Waters XBridge BEH C18 Column, 130A, 3.5 μm, 4.6 mm×250 mm; mobile phase: Solvent A=water (with 0.1% formic acid), solvent B=acetonitrile (with 0.1% formic acid). Gradients: 25-45% B in 10 minutes, 45-65% B in 12 minutes, 65-90% in 6 minutes at a flow rate of 0.5 mL/minutes Required amounts of the product was formulated in 1% PBSA for cell studies.
(§2) The study was conducted using SHP-77, CT26.WT, CT26.DLL3, and HEK293.DLL3 cells (Table 9)
(§3) Adherent cell studies: The cells were cultured in appropriate culture media (20 mL) in tissue culture treated T150 flasks at 37° C. and 5% C02. Adherent cells were detached (60-70% confluent) using 5 mL Versene at 37° C. for 3 minutes. After confirming the viability using countess and count of detached cells using Trypan blue, the cells were centrifuged at 4° C. for 5 minutes (1,000 rpm). The cell pellet obtained was washed once with PBS and resuspended in 1% PBSA to obtain the desired cell concentration (5-25 million cells/mL).
as §3, with “Suspension” for “Adherent”, “CO2.” for “C02. Adherent cells were detached (60-70% confluent) using 5 mL Versene at 37° C. for 3 minutes.”, “viability” for “viability using countess”
(§4) Cell numbers used for the assay were in the range of 5 million cells/condition-25 million cells/condition.
(§5) Internalization: The resuspended cells in 300 μL of 1% PBSA and counted in the gamma counter as “bound fraction” were collected in 1.5 mL Eppendorf tube and pelleted. The pelleted cells were incubated with 300 μL of 50 mM Glycine pH=2.5 for 3 minutes and then pelleted discarding the supernatant. This process was repeated one more time. The pelleted cells were washed with 300 μL of cold 1% PBSA and then resuspended in 300 μl 0.3M NaOH. This was counted in the gamma counter as “internalized fraction”.
(§6) In these Tables, “A” represents % s ≤25; “B” represents 25 <% ≤50; “C” represents % >50.

SHP-77 cells [3] = test: Cell binding (total uptake) of [177Lu]Lu-labeled peptide, SHP-77 cells; assay type: cell-based; conditions: 1 h, 37° C.
Protocol: as §1, §2, §3
as §3, with “Suspension” for “Adherent”, “CO2.” for “C02. Adherent cells were detached (60-70% confluent) using 5 mL Versene at 37° C. for 3 minutes.”, “viability” for “viability using countess”
as §4
(§7) Total uptake: Cells were incubated with 300 μL (0.8 μCi) of the incubation buffer (containing radiolabeled peptide [^177Lu]Lu-test peptide) for 1 hour at 37° C. (Table 10). Post incubation, the cells were pelleted and washed 2 times using cold PBS+1% BSA. The supernatant and washes were combined and counted together as “unbound fraction” in a gamma counter. The cells were then resuspended in 300 μL of 1% PBS+1% BSA and counted in the gamma counter as “bound fraction”.
as §6

CT26.DLL3 cells [4] = test: Internalization of [177Lu]Lu-labeled peptide, CT26.DLL3 cells; assay type: cell-based; conditions: 1 h, 37° C.
Protocol: as §1, §2, §3, §4, §5, §6

CT26.DLL3 cells [5] = test: Cell binding (total uptake) of [177Lu]Lu-labeled peptide, CT26.DLL3 cells; assay type: cell-based; conditions: 1 h, 37° C.
Protocol: as §1, §2, §3, §4, §7, §6

[6] = biotinylated human DLL3 on streptavidin sensor chip, 25° C., 1:1 binding model; read-out: SPR KD

Row | SMILES | Kd (DLL3; [6]) [nM] | kidney uptake (% IA/g) [1] | tumor uptake (% IA/g) [1] | % Internalization (out of bound fraction) (SHP-77 cells [2]) | % Binding (SHP-77 cells [3]) | % Internalization (out of bound fraction) (CT26.DLL3 cells [4]) | % Binding (CT26.DLL3 cells [5]) | Kd (DLL3; read-out: SPR KD; biotinylated human DLL3 on streptavidin sensor chip, 25° C., 1:1 binding model) [nM]
1 | CC(=O)N[C@@H](Cc1c[nH]c2ccccc12)C(=O)N[C@H](C(=O)N(C)[C@@H](CC(C)(C)C)C(=O)N[C@H]1CSCSC[C@@H](C(=O)N[C@@H](Cc2c[nH]c3ccccc23)C(=O)N2CCC[C@@]2(C)C(N)=O)NC(=O)[C@H](CC(=O)O)NC(=O)[C@H](CCCCNC(=O)CN2CCN(CC(=O)O)CCN(CC(=O)O)CCN(CC(=O)O)CC2)NC(=O)[C@H](Cc2ccc3ccccc3c2)NC(=O)[C@H](CC(N)=O)NC(=O)[C@H](CC2CCNCC2)NC1=O)[C@@H](C)O [compound 236, Ac-W-T-(NMe-tBuAla)-C(1)-[3-(4-piperidinyl)-Ala]-N-(2Nal)-Lys(DOTA)-D-C(1)-W-(aMe-P)-CONH2] (Ac-WT[NMetBuAla]C[Ala(piperidin-4-yl)]N[2Nal]K(DOTA)DCW[αMeP]-NH2; linker 4-10 via CH2) | < 1 | C (“C” represents 0 < % IA/g ≤ 10 in) | B (“B” represents % IA/g > 5 in tumor) | C (% >50) | C (% >50) | – | – | –
2 | CCCC[C@@H](C(=O)N[C@H]1CSSC[C@@H](C(=O)N[C@@H](Cc2c[nH]c3ccccc23)C(=O)N2CCC[C@H]2C(N)=O)NC(=O)[C@H](CC(=O)O)NC(=O)[C@H](CCCCNC(=O)CN2CCN(CC(=O)O)CCN(CC(=O)O)CCN(CC(=O)O)CC2)NC(=O)[C@H](Cc2ccc3ccccc3c2)NC(=O)[C@H](CC(N)=O)NC(=O)[C@H](CC2CCNCC2)NC1=O)N(C)C(=O)[C@@H](NC(=O)[C@H](Cc1c[nH]c2ccccc12)NC(C)=O)[C@@H](C)O [compound 300, Ac-W-T-(NMe-Nle)-C(3)-[3-(4-piperidinyl)-Ala]-N-(2Nal)-Lys(DOTA)-D-C(3)-W-P-CONH2] (Ac-WT[NMeNle]C[Ala(piperidin-4-yl)]N[2Nal]K(DOTA)DCWP-NH2; disulfide 4-10) | < 1 | C (“C” represents 0 < % IA/g ≤ 10 in) | A (“A” represents 0 < % IA/g ≤ 5 in tumor) | – | – | B (25 <% ≤50) | B (25 <% ≤50) | –
3 | CC(=O)N[C@@H](Cc1c[nH]c2ccccc12)C(=O)N[C@H](C(=O)N[C@H](C(=O)N[C@H]1CSSC[C@@H](C(=O)N[C@@H](Cc2c[nH]c3ccccc23)C(=O)N2CCC[C@H]2C(N)=O)NC(=O)[C@H](CC(=O)O)NC(=O)[C@H](CCCCNC(=O)CN2CCN(CC(=O)O)CCN(CC(=O)O)CCN(CC(=O)O)CC2)NC(=O)[C@H](Cc2ccc3ccccc3c2)NC(=O)[C@H](CC(N)=O)NC(=O)[C@H](CC2CCNCC2)NC1=O)C(C)(C)C)[C@@H](C)O [compound 301, Ac-W-T-(Tbg)-C(3)-[3-(4-piperidinyl)-Ala]-N-(2Nal)-Lys(DOTA)-D-C(3)-W-P-CONH2] (Ac-WT[Tle]C[Ala(piperidin-4-yl)]N[2Nal]K(DOTA)DCWP-NH2; disulfide 4-10) | < 1 | C (“C” represents 0 < % IA/g ≤ 10 in) | A (“A” represents 0 < % IA/g ≤ 5 in tumor) | – | – | B (25 <% ≤50) | B (25 <% ≤50) | –
4 | CC(=O)N[C@@H](Cc1c[nH]c2ccccc12)C(=O)N[C@H](C(=O)N[C@H](C(=O)N[C@H]1CSCSC[C@@H](C(=O)N[C@@H](Cc2c[nH]c3ccccc23)C(=O)N2CCC[C@H]2C(=O)N[C@H](CCCCNC(=O)COCCOCCOCCOCCOCCOCCOCCOCCNC(=O)Cc2ccc(I)cc2)C(N)=O)NC(=O)[C@H](CC(=O)O)NC(=O)[C@H](CCCCNC(=O)CN2CCN(CC(=O)O)CCN(CC(=O)O)CCN(CC(=O)O)CC2)NC(=O)[C@H](Cc2ccc3ccccc3c2)NC(=O)[C@H](CC(N)=O)NC(=O)[C@H](CC2CCNCC2)NC1=O)C1CCCCC1)[C@@H](C)O [compound 417] (Ac-WT[Chg]C[Ala(piperidin-4-yl)]N[2Nal]K(DOTA)DCWP[dK](X2)-NH2; linker 4-10 via CH2) | – | D (“D” represents % IA/g > 10 in kidney) | B (“B” represents % IA/g > 5 in tumor) | – | – | B (25 <% ≤50) | B (25 <% ≤50) | < 1
5 | CC(=O)NCCCC[C@@H](NC(=O)[C@@H]1CCCN1C(=O)[C@H](Cc1c[nH]c2ccccc12)NC(=O)[C@@H]1CSCSC[C@H](NC(=O)[C@H](CC(C)(C)C)N(C)C(=O)[C@@H](NC(=O)[C@H](Cc2c[nH]c3ccccc23)NC(C)=O)C(C)O)C(=O)N[C@@H](CC2CCNCC2)C(=O)N[C@@H](CC(N)=O)C(=O)N[C@@H](Cc2ccc3ccccc3c2)C(=O)N[C@@H](CCCCNC(=O)CN2CCN(CC(=O)O)CCN(CC(=O)O)CCN(CC(=O)O)CC2)C(=O)N[C@@H](CC(=O)O)C(=O)N1)C(N)=O (stereo partly drawn) [compound 445, Ac-W-T-(NMe-tBuAla)-C(1)-[3-(4-piperidinyl)-Ala]-N-(2Nal)-Lys(DOTA)-D-C(1)-W-P-[D-Lys(Ac)]-CONH2] (Ac-W[Thr(3ξ)][NMetBuAla]C[Ala(piperidin-4-yl)]N[2Nal]K(DOTA)DCWP[dK](Ac)-NH2; linker 4-10 via CH2) | < 1 | C (“C” represents 0 < % IA/g ≤ 10 in) | B (“B” represents % IA/g > 5 in tumor) | C (% >50) | C (% >50) | – | – | –
